Where no end group is shown, it is not given here.
Assays:
[1] = test system: dorsal parts of guinea pigs; test: Growth-phase hair follicle inhibitory effects (number of hair shafts grown per unit area); type: in vivo, guinea pig; details: 1 μg each, intracutaneous, 50 μL/site, fifth day after the administration (FIG. 1)
Method: Solutions (1 μg, each) of endothelin-1, endothelin-2 and endotherin-3 in aliquots of phosphate buffer solution (PBS), which contained 0.1% of bovine serum albumin (BSA), were intracutaneously administered (at 50 μL/site) to the dorsal parts of guinea pigs, respectively, from which hair had been cut off by a hair clipper. Three days after the administration, hair was again cut off by a hair clipper from the administered sites. Two days after the cutting, the numbers of hair shafts grown per unit area at the administered sites were counted.

[2] = test system: hair follicle organs in growth phase from a human scalp tissue; test: Growth inhibitory effects on organ-cultured hair follicles; type: cell-based
Method: From a human scalp tissue, hair follicle organs in growth phase were surgically isolated under a stereomicroscope. Following a conventional procedure [Philpott M.P., et al., J. Cell Sci., 97, 463-471 (1990), the isolated hair follicles were subjected to organ culture. Described specifically, endothelin-1 was added to William's E medium which contained L-glutamine (2mM), hydrocortisone (10ng/mL), insulin ([…]) sodium selenite (10 ng/mL) and transferrin (10 μg/mL).

[3] = test system: dorsal part of a guinea pig; test: Depilation inducing effects of endothelin (intracutaneous administration); type: in vivo; details: 0.3 μg in 0.1% BSA/PBS, 50 μL/site, 10 days after the administration
Method: (§1) A solution of endothelin-1 (0.3 μg) in phosphate buffer solution (PBS), which contained 0.1% of bovine serum albumin (BSA), was intracutaneously administered (at 50 μL/site) to the dorsal part of a guinea pig.

[4] = test system: growth-phase hair follicle; test: Structural changes of hair follicle structure (hematoxylin-eosin staining of dorsal skin); type: in vivo, guinea pig; details: 0.3 μg intracutaneous
Method: as §1, with “1.1%” for “0.1%”, “pig. After that, samples were collected day after day from the administered dorsal skin, and tissue samples were prepared by hematoxylin-eosin staining.” for “pig.”

Row | Compound | Number of hair shafts grown per unit area at the administered sites [1] | Percent regression of growth-phase hair follicles ([2]; 10 ng/mL, Day 1 of incubation) [%] | Percent regression of growth-phase hair follicles ([2]; 10 ng/mL, Day 2 of incubation) [%] | Percent regression of growth-phase hair follicles ([2]; 100 ng/mL, Day 1 of incubation) [%] | Percent regression of growth-phase hair follicles ([2]; 100 ng/mL, Day 2 of incubation) [%] | Grown hair follicle lengths (hair growth inhibition) ([2]; day 4 of incubation and the subsequent days, compared with control group without endothelin-1 (FIG. 3)) | Structural change of incubated growth-phase hair follicles ([2]; during the incubation period (FIG. 4)) | Hair shaft falling-off and formation of depilation spot at the administered site [3] | Hair follicle histology ([4]; 1st day after the administration (FIG. 2)) | Hair follicle histology ([4]; 3rd day after the administration (FIG. 2))
1 | endothelin-2 (CSCSSWLDKECVYFCHLDIIW; ends and bridges not checked; cysteine pairing not given here; UniProt P20800 49-69, looked up) [peptide composed of 21 amino acid residues, isoform of endothelin] | significant (p<0.01) decrease in the number of hair shafts | – | – | – | – | – | – | – | – | –
2 | CC[C@H](C)[C@H](NC(=O)[C@H](CC(=O)O)NC(=O)[C@H](CC(C)C)NC(=O)[C@H](Cc1c[nH]cn1)NC(=O)[C@@H]1CSSC[C@H](N)C(=O)N[C@@H](CO)C(=O)N[C@H]2CSSC[C@H](NC(=O)[C@H](CCC(=O)O)NC(=O)[C@H](CCCCN)NC(=O)[C@H](CC(=O)O)NC(=O)[C@H](CCSC)NC(=O)[C@H](CC(C)C)NC(=O)[C@H](CO)NC(=O)[C@H](CO)NC2=O)C(=O)N[C@@H](C(C)C)C(=O)N[C@@H](Cc2ccc(O)cc2)C(=O)N[C@@H](Cc2ccccc2)C(=O)N1)C(=O)N[C@H](C(=O)N[C@@H](Cc1c[nH]c2ccccc12)C(=O)O)[C@@H](C)CC [Endothelin-1, endothelin-1] | significant (p<0.01) decrease in the number of hair shafts | 0.0 | 0.0 | 0.0 | 0.0 | significant hair growth inhibitory effects were observed | structural change of the endothelin-treated, growth-phase hair follicles into those similar to resting-phase hair follicles was observed | hair shaft falling-off and formation of a marked depilation spot were observed | regressed image of a growth-phase hair follicle was observed | image of a follicular tissue in transition phase was presented
3 | endothelin-3 (CTCFTYKDKECVYYCHLDIIW; ends and bridges not checked; cysteine pairing not given here; UniProt P14138 97-117, looked up) [endotherin-3, peptide composed of 21 amino acid residues, isoform of endothelin] | significant (p<0.01) decrease in the number of hair shafts | – | – | – | – | – | – | – | – | –

— patent publication US6884772B1, “Depilatories and agents for external use” (Kao Corporation, priority 1999, dated 2005)
